Experiments:
Assay in all cases: Screening of fungi for enzyme activity with 4-methylumbelliferone-labelled substrates
Format in all cases: cell-based
[1] = test system: Aspergillus versicolor (IBT 13738); conditions: substrate 10 μM, 25° C., pH 5; for Enzyme activity: amount of released 4-methylumbelliferone: mineral medium; for Enzyme activity: amount of released 4-methylumbelliferone during 5 hours of incubation: vegetable juice medium
Eurotium sp. (AAS 36) = conditions: substrate 10 μM, 25° C., pH 5; for Enzyme activity: amount of released 4-methylumbelliferone: mineral medium; for Enzyme activity: amount of released 4-methylumbelliferone during 5 hours of incubation: vegetable juice medium
[2] = test system: Sodaria fimicola (AAS 17); conditions: substrate 10 μM, 25° C., pH 5; for Enzyme activity: amount of released 4-methylumbelliferone: mineral medium; for Enzyme activity: amount of released 4-methylumbelliferone during 5 hours of incubation: vegetable juice medium
[3] = test system: Aureobasidium pullulans (QM 3092); conditions: substrate 10 μM, 25° C., pH 5; for Enzyme activity: amount of released 4-methylumbelliferone during 5 hours of incubation: Aureobasidium pulluians (QM 3092), vegetable juice medium; for Enzyme activity: amount of released 4-methylumbelliferone: Aureobasidium pullulans (QM 3092), mineral medium
[4] = test system: Paecilomyces farinosus (AGM 5); conditions: substrate 10 μM, 25° C., pH 5; for Enzyme activity: amount of released 4-methylumbelliferone: mineral medium; for Enzyme activity: amount of released 4-methylumbelliferone during 5 hours of incubation: vegetable juice medium
[5] = test system: Mucor racemosus (AAS 310); conditions: substrate 10 μM, 25° C., pH 5; for Enzyme activity: amount of released 4-methylumbelliferone: mineral medium; for Enzyme activity: amount of released 4-methylumbelliferone during 5 hours of incubation: vegetable juice medium
[6] = test system: Schizophyllum commune (AGM 25); conditions: substrate 10 μM, 25° C., pH 5; for Enzyme activity: amount of released 4-methylumbelliferone: mineral medium; for Enzyme activity: amount of released 4-methylumbelliferone during 5 hours of incubation: vegetable juice medium
[7] = test system: Trametes versicolor (AGM 24); conditions: substrate 10 μM, 25° C., pH 5; for Enzyme activity: amount of released 4-methylumbelliferone: mineral medium; for Enzyme activity: amount of released 4-methylumbelliferone during 5 hours of incubation: vegetable juice medium
[8] = test system: Penicillium solitum (IBT 13771); conditions: substrate 10 μM, 25° C., pH 5; for Enzyme activity: amount of released 4-methylumbelliferone: mineral medium; for Enzyme activity: amount of released 4-methylumbelliferone during 5 hours of incubation: vegetable juice medium
[9] = test system: Penicillium commune (IBT 13713); conditions: substrate 10 μM, 25° C., pH 5; for Enzyme activity: amount of released 4-methylumbelliferone: mineral medium; for Enzyme activity: amount of released 4-methylumbelliferone during 5 hours of incubation: vegetable juice medium
[10] = test system: Rhizomucor pusillus (AAS 300); conditions: substrate 10 μM, 25° C., pH 5; for Enzyme activity: amount of released 4-methylumbelliferone: mineral medium; for Enzyme activity: amount of released 4-methylumbelliferone during 5 hours of incubation: vegetable juice medium
[11] = test system: Aspergillus oryzae (AGM 11); conditions: substrate 10 μM, 25° C., pH 5; for Enzyme activity: amount of released 4-methylumbelliferone: mineral medium; for Enzyme activity: amount of released 4-methylumbelliferone during 5 hours of incubation: vegetable juice medium
[12] = test system: Ascobolus crenulatus (AAS 1); conditions: substrate 10 μM, 25° C., pH 5; for Enzyme activity: amount of released 4-methylumbelliferone: mineral medium; for Enzyme activity: amount of released 4-methylumbelliferone during 5 hours of incubation: vegetable juice medium
[13] = test system: Cladosporium herbarum (AGM 8); conditions: substrate 10 μM, 25° C., pH 5; for Enzyme activity: amount of released 4-methylumbelliferone: mineral medium; for Enzyme activity: amount of released 4-methylumbelliferone during 5 hours of incubation: vegetable juice medium

Cc1cc(=O)oc2cc(O[C@@H]3O[C@H](CO)[C@@H](O)[C@H](O)[C@@H]3O)ccc12 [substrate 6, 4-methylumbelliferyl β-D-mannopyranoside]
*** (2 ≦ ***): Enzyme activity: amount of released 4-methylumbelliferone during 5 hours of incubation [2] | Enzyme activity: amount of released 4-methylumbelliferone during 5 hours of incubation [6] | Enzyme activity: amount of released 4-methylumbelliferone during 5 hours of incubation [11]
0 µmol: Enzyme activity: amount of released 4-methylumbelliferone [1] | Enzyme activity: amount of released 4-methylumbelliferone during 5 hours of incubation [1] | Enzyme activity: amount of released 4-methylumbelliferone (Eurotium sp. (AAS 36)) | Enzyme activity: amount of released 4-methylumbelliferone during 5 hours of incubation (Eurotium sp. (AAS 36)) | Enzyme activity: amount of released 4-methylumbelliferone [2] | Enzyme activity: amount of released 4-methylumbelliferone [3] | Enzyme activity: amount of released 4-methylumbelliferone [4] | Enzyme activity: amount of released 4-methylumbelliferone during 5 hours of incubation [4] | Enzyme activity: amount of released 4-methylumbelliferone [5] | Enzyme activity: amount of released 4-methylumbelliferone [6] | Enzyme activity: amount of released 4-methylumbelliferone [7] | Enzyme activity: amount of released 4-methylumbelliferone during 5 hours of incubation [7] | Enzyme activity: amount of released 4-methylumbelliferone [8] | Enzyme activity: amount of released 4-methylumbelliferone during 5 hours of incubation [8] | Enzyme activity: amount of released 4-methylumbelliferone [9] | Enzyme activity: amount of released 4-methylumbelliferone [10] | Enzyme activity: amount of released 4-methylumbelliferone during 5 hours of incubation [10] | Enzyme activity: amount of released 4-methylumbelliferone [11] | Enzyme activity: amount of released 4-methylumbelliferone [12] | Enzyme activity: amount of released 4-methylumbelliferone [13] | Enzyme activity: amount of released 4-methylumbelliferone during 5 hours of incubation [13]
** (1 ≦ ** 2): Enzyme activity: amount of released 4-methylumbelliferone during 5 hours of incubation [3] | Enzyme activity: amount of released 4-methylumbelliferone during 5 hours of incubation [5]
* (0.4 ≦ * < 1): Enzyme activity: amount of released 4-methylumbelliferone during 5 hours of incubation [9] | Enzyme activity: amount of released 4-methylumbelliferone during 5 hours of incubation [12]

Cc1cc(=O)oc2cc(OC3OC(CO)C(O)C(O)C3O)ccc12 [substrate 5, 4-methylumbelliferyl α-D-mannopyranoside]
* (0.4 ≦ * < 1): Enzyme activity: amount of released 4-methylumbelliferone during 5 hours of incubation (Eurotium sp. (AAS 36)) | Enzyme activity: amount of released 4-methylumbelliferone during 5 hours of incubation [5] | Enzyme activity: amount of released 4-methylumbelliferone during 5 hours of incubation [7] | Enzyme activity: amount of released 4-methylumbelliferone during 5 hours of incubation [9]
0 µmol: Enzyme activity: amount of released 4-methylumbelliferone [1] | Enzyme activity: amount of released 4-methylumbelliferone during 5 hours of incubation [1] | Enzyme activity: amount of released 4-methylumbelliferone (Eurotium sp. (AAS 36)) | Enzyme activity: amount of released 4-methylumbelliferone [2] | Enzyme activity: amount of released 4-methylumbelliferone [3] | Enzyme activity: amount of released 4-methylumbelliferone [4] | Enzyme activity: amount of released 4-methylumbelliferone during 5 hours of incubation [4] | Enzyme activity: amount of released 4-methylumbelliferone [5] | Enzyme activity: amount of released 4-methylumbelliferone [6] | Enzyme activity: amount of released 4-methylumbelliferone [7] | Enzyme activity: amount of released 4-methylumbelliferone [8] | Enzyme activity: amount of released 4-methylumbelliferone during 5 hours of incubation [8] | Enzyme activity: amount of released 4-methylumbelliferone [9] | Enzyme activity: amount of released 4-methylumbelliferone [10] | Enzyme activity: amount of released 4-methylumbelliferone [11] | Enzyme activity: amount of released 4-methylumbelliferone [12] | Enzyme activity: amount of released 4-methylumbelliferone during 5 hours of incubation [12] | Enzyme activity: amount of released 4-methylumbelliferone [13] | Enzyme activity: amount of released 4-methylumbelliferone during 5 hours of incubation [13]
*** (2 ≦ ***): Enzyme activity: amount of released 4-methylumbelliferone during 5 hours of incubation [2] | Enzyme activity: amount of released 4-methylumbelliferone during 5 hours of incubation [10] | Enzyme activity: amount of released 4-methylumbelliferone during 5 hours of incubation [11]
** (1 ≦ ** 2): Enzyme activity: amount of released 4-methylumbelliferone during 5 hours of incubation [3] | Enzyme activity: amount of released 4-methylumbelliferone during 5 hours of incubation [6]

Cc1cc(=O)oc2cc(O[C@@H]3OC[C@@H](O)[C@H](O)[C@H]3O)ccc12 [substrate 9, 4-methylumbelliferyl β-D-xyloside]
0 µmol: Enzyme activity: amount of released 4-methylumbelliferone [1] | Enzyme activity: amount of released 4-methylumbelliferone (Eurotium sp. (AAS 36)) | Enzyme activity: amount of released 4-methylumbelliferone during 5 hours of incubation (Eurotium sp. (AAS 36)) | Enzyme activity: amount of released 4-methylumbelliferone [2] | Enzyme activity: amount of released 4-methylumbelliferone during 5 hours of incubation [2] | Enzyme activity: amount of released 4-methylumbelliferone [3] | Enzyme activity: amount of released 4-methylumbelliferone [4] | Enzyme activity: amount of released 4-methylumbelliferone during 5 hours of incubation [4] | Enzyme activity: amount of released 4-methylumbelliferone [5] | Enzyme activity: amount of released 4-methylumbelliferone during 5 hours of incubation [5] | Enzyme activity: amount of released 4-methylumbelliferone [6] | Enzyme activity: amount of released 4-methylumbelliferone [7] | Enzyme activity: amount of released 4-methylumbelliferone during 5 hours of incubation [7] | Enzyme activity: amount of released 4-methylumbelliferone [8] | Enzyme activity: amount of released 4-methylumbelliferone [9] | Enzyme activity: amount of released 4-methylumbelliferone [10] | Enzyme activity: amount of released 4-methylumbelliferone [11] | Enzyme activity: amount of released 4-methylumbelliferone [12] | Enzyme activity: amount of released 4-methylumbelliferone during 5 hours of incubation [12] | Enzyme activity: amount of released 4-methylumbelliferone [13] | Enzyme activity: amount of released 4-methylumbelliferone during 5 hours of incubation [13]
** (1 ≦ ** 2): Enzyme activity: amount of released 4-methylumbelliferone during 5 hours of incubation [8]
* (0.4 ≦ * < 1): Enzyme activity: amount of released 4-methylumbelliferone during 5 hours of incubation [9]
*** (2 ≦ ***): Enzyme activity: amount of released 4-methylumbelliferone during 5 hours of incubation [1] | Enzyme activity: amount of released 4-methylumbelliferone during 5 hours of incubation [3] | Enzyme activity: amount of released 4-methylumbelliferone during 5 hours of incubation [6] | Enzyme activity: amount of released 4-methylumbelliferone during 5 hours of incubation [10] | Enzyme activity: amount of released 4-methylumbelliferone during 5 hours of incubation [11]

Cc1cc(=O)oc2cc(O[C@@H]3O[C@H](C)[C@H](O)[C@H](O)[C@H]3O)ccc12 [substrate 11, 4-methylumbelliferyl β-D-fucoside]
0 µmol: Enzyme activity: amount of released 4-methylumbelliferone [1] | Enzyme activity: amount of released 4-methylumbelliferone during 5 hours of incubation [1] | Enzyme activity: amount of released 4-methylumbelliferone (Eurotium sp. (AAS 36)) | Enzyme activity: amount of released 4-methylumbelliferone during 5 hours of incubation (Eurotium sp. (AAS 36)) | Enzyme activity: amount of released 4-methylumbelliferone [2] | Enzyme activity: amount of released 4-methylumbelliferone during 5 hours of incubation [2] | Enzyme activity: amount of released 4-methylumbelliferone during 5 hours of incubation [3] | Enzyme activity: amount of released 4-methylumbelliferone [3] | Enzyme activity: amount of released 4-methylumbelliferone [4] | Enzyme activity: amount of released 4-methylumbelliferone during 5 hours of incubation [4] | Enzyme activity: amount of released 4-methylumbelliferone [5] | Enzyme activity: amount of released 4-methylumbelliferone during 5 hours of incubation [5] | Enzyme activity: amount of released 4-methylumbelliferone [6] | Enzyme activity: amount of released 4-methylumbelliferone during 5 hours of incubation [6] | Enzyme activity: amount of released 4-methylumbelliferone [7] | Enzyme activity: amount of released 4-methylumbelliferone during 5 hours of incubation [7] | Enzyme activity: amount of released 4-methylumbelliferone [8] | Enzyme activity: amount of released 4-methylumbelliferone during 5 hours of incubation [8] | Enzyme activity: amount of released 4-methylumbelliferone [9] | Enzyme activity: amount of released 4-methylumbelliferone during 5 hours of incubation [9] | Enzyme activity: amount of released 4-methylumbelliferone [10] | Enzyme activity: amount of released 4-methylumbelliferone during 5 hours of incubation [10] | Enzyme activity: amount of released 4-methylumbelliferone [11] | Enzyme activity: amount of released 4-methylumbelliferone during 5 hours of incubation [11] | Enzyme activity: amount of released 4-methylumbelliferone [12] | Enzyme activity: amount of released 4-methylumbelliferone during 5 hours of incubation [12] | Enzyme activity: amount of released 4-methylumbelliferone [13] | Enzyme activity: amount of released 4-methylumbelliferone during 5 hours of incubation [13]

From patent publication US6372446B1, “Method of selectively determining a fungal biomass” (Mycometer ApS, priority 1997, dated 2002)
